Assay in all cases: inhibition of tumour cell growth, NCI panel, 48 h
Assay [1] has as its system RXF 393 renal.
The subject of assay [2] is SR leukemia.
Assay [3] relates to RXF-631 renal.

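Tested at 5 concentrations; 48 h exposure; 96-well plates; endpoints linearly interpolated, else capped at highest concentration. At the TGI there is no net growth.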 Bounds are passed on as bounds.

The molecule `Cc1cc(N=Nc2ccc(N=Nc3c(O)c(S(=O)(=O)O)cc4cc(S(=O)(=O)O)ccc34)cc2C)ccc1N=Nc1ccc2cc(S(=O)(=O)O)cc(S(=O)(=O)O)c2c1` showed a TGI in assay [1] of more than 100 µM.
On the same count and under the same terms, with `CC1=C2C(O)C(C(C)C(=O)NC(C)C)CCC2(C)C=CC1=O` (stereo not given) the figure was more than 100 µM.
With `CC(C)(O)[C@H](CCO)O[Si](c1ccccc1)(c1ccccc1)C(C)(C)C`, in assay [2], the TGI was determined as 26.4 µM.
As for `COC(=O)NN1C(=O)C(=P(c2ccccc2)(c2ccccc2)c2ccccc2)C(C(=O)OC)=C1C`, in assay [3], the TGI is more than 100 µM.
Molecule `Cn1c(=O)c2nc(N3CCCCC3)cnc2n(C)c1=O` returned a TGI in assay [2] of more than 100 µM.

For the origin of these results see PubChem BioAssay (NCI).
